Reference: patent US8906852B2 (MethylGene Inc., priority 2010, dated 2014)
Counter-ions that a name gives are not always drawn.

These compounds were tested against T1, VEGFR/KDR (Homo sapiens, UniProt P35968) (assay: VEGFR/KDR kinase inhibition, DELFIA assay). Settings: ATP 0.6 uM (2x Km), enzyme 5 nM.
T1 construct: made in house; host or cells: Sf9 cells (Spodoptera frugiperda), baculovirus
Assay type: biochemical
Procedure, shortened: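 DELFIA time-resolved fluorescence readout using Europium-tagged anti-phosphotyrosine antibody after EDTA stop. Kinase reaction on plate-bound poly(Glu4,Tyr) ran 10-30 min at 30° C with 5 nM enzyme and 0.6 uM ATP (2× Km), following 4 min on-ice pre-incubation with compound; IC50 over a concentration range.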

T1 sequence (P35968 806-1356): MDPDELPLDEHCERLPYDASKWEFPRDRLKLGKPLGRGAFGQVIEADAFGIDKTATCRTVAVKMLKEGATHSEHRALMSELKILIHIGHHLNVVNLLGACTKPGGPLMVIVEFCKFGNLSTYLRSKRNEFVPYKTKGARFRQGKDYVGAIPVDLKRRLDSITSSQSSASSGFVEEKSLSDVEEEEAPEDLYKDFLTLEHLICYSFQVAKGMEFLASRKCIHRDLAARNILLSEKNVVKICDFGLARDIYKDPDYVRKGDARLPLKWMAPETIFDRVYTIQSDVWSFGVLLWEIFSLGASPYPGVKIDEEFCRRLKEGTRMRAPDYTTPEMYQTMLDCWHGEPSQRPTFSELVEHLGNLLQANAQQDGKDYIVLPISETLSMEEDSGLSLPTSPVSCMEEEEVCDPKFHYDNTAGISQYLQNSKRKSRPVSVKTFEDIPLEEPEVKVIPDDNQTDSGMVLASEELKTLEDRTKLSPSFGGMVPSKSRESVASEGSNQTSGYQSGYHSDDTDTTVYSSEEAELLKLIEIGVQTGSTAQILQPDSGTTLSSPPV

How did the IC50 turn out when `CN(C)CCNC(=O)C1CCCN(Cc2ccc(-c3cc4nccc(Oc5ccc(NC(=O)NC6CC6)cc5F)c4s3)nc2)C1` (centres unmarked) [Compound 491, 1-((6-(7-(4-(3-cyclopropylureido)-2-fluorophenoxy)thieno[3,2-b]pyridin-2-yl)pyridin-3-yl)methyl)-N-(2-(dimethylamino)ethyl)piperidine-3-carboxamide] was run?
Its IC50 is < 50 nM.

`COCCN(Cc1ccc(-c2cc3nccc(Oc4ccc(NC(=O)NC5CC5)c(Cl)c4)c3s2)nc1)C(C)=O` [Compound 116, N-((6-(7-(3-chloro-4-(3-cyclopropylureido)phenoxy)thieno[3,2-b]pyridin-2-yl)pyridin-3-yl)methyl)-N-(2-methoxyethyl)acetamide] was tested. Which IC50 did it give?
The IC50 was < 50 nM.

How did the IC50 turn out when `COCCN(Cc1ccc(-c2cc3nccc(Oc4ccc(NC(=O)NC5CC5)nc4)c3s2)nc1)C(C)=O` [Compound 40, N-((6-(7-(6-(3-cyclopropylureido)-pyridin-3-yloxy)thieno[3,2-b]-pyridirin-2-yl)pyridin-3-yl)methyl)-N-(2-methoxyethyl)-acetamide] was run?
Its IC50 is 50 to 100 nM.

`CC(=O)O[C@H]1CCN(C(=O)c2cc3nccc(Oc4ccc(NC(=O)NC5CC5)cc4F)c3s2)C1` [Compound 468, (S)-1-(7-(4-(3-cyclopropylureido)-2-fluorophenoxy)thieno[3,2-b]pyridine-2-carbonyl)pyrrolidin-3-yl acetate] was tested. Which IC50 did it give?
The IC50 was < 50 nM.

With `O=C(Nc1ccc(Oc2ccnc3cc(-c4cnn(CCN5CCCC5=O)c4)sc23)c(F)c1)NC1CC1` [Compound 166, 1-cyclopropyl-3-(3-fluoro-4-(2-(1-(2-(2-oxopyrrolidin-1-yl)ethyl)-1H-pyrazol-4-yl)thieno[3,2-b]pyridin-7-yloxy)phenyl)urea] as the compound, how does the IC50 read?
Its IC50 is < 50 nM.

`O=C(Nc1ccc(Oc2ccnc3cc(-c4ccc(CN5CCOCCOCCOCCOCC5)cn4)sc23)c(F)c1)NC1CC1` [Compound 533] was tested. Which IC50 did it give?
Its IC50 is < 50 nM.

How did the IC50 turn out when `Cc1cc(NCc2ccc(-c3cc4nccc(Oc5ccc(NC(=O)NC6CC6)cc5F)c4s3)nc2)n[nH]1` [Compound 333, 1-Cyclopropyl-3-(3-fluoro-4-(2-(5-((5-methyl-1H-pyrazol-3-ylamino)methyl)pyridin-2-yl)thieno[3,2-b]pyridin-7-yloxy)phenyl)urea] was run?
The IC50 was < 50 nM.

For `COCCNCCc1ccc(-c2cc3nccc(Oc4ccc(NC(=S)NC(=O)Cc5ccc(F)cc5)cc4F)c3s2)nc1` [Compound 187, N-(3-fluoro-4-(2-(5-(2-(2-methoxyethylamino)ethyl)pyridin-2-yl)thieno[3,2-b]pyridin-7-yloxy)phenylcarbamothioyl)-2-(4-fluorophenyl)acetamide], which IC50 is on record?
The IC50 was < 50 nM.

Which IC50 does the source give for `Cn1c(C(=O)NCCCN2CCOCC2)cnc1-c1cc2nccc(Oc3ccc(NC(=O)NC4CC4)cc3F)c2s1` [Compound 224] here?
The IC50 was < 50 nM.

How did the IC50 turn out when `CC(C)(C)C(=O)O[C@@H]1CCCN(C(=O)c2cc3nccc(Oc4ccc(NC(=O)NC5CC5)cc4F)c3s2)C1` [Compound 451] was run?
The IC50 was ≥ 250 nM.

With `CCNC(=O)N(CCOC)Cc1cnc(-c2cc3nccc(Oc4ccc(NC(=O)NC(C)C)cc4F)c3s2)n1C` [Compound 161-A, 1-((2-(7-(4-isopropylaminocarbonylamino-2-fluorophenoxy)thieno[3,2-b]pyridin-2-yl)-1-methyl-1H-imidazol-5-yl)methyl)-3-ethyl-1-(2-methoxyethyl)urea] as the compound, how does the IC50 read?
Its IC50 is < 50 nM.

With `O=C(Nc1ccc(Oc2ccnc3cc(-c4ccc(CNc5cc[nH]n5)cn4)sc23)c(F)c1)NC1CC1` [Compound 332, 1-(4-(2-(5-((1H-Pyrazol-3-ylamino)methyl)pyridin-2-yl)thieno[3,2-b]pyridin-7-yloxy)-3-fluorophenyl)-3-cyclopropylurea] as the compound, how does the IC50 read?
Its IC50 is < 50 nM.

`O=C(O)CNC(=O)N1CCN(Cc2ccc(-c3cc4nccc(Oc5ccc(NC(=O)NC6CC6)cc5F)c4s3)nc2)CC1` [Compound 558] was tested. Which IC50 did it give?
The IC50 was < 50 nM.

`O=C(Nc1ccc(Oc2ccnc3cc(-c4ccc(CN5CC[C@@H](O)C5)cn4)sc23)c(F)c1)NC1CC1` [Compound 53, (R)-1-cyclopropyl-3-(3-fluoro-4-(2-(5-((3-hydroxypyrrolidin-1-yl)methyl)pyridin-2-yl)thieno[3,2-b]-pyridin-7-yloxy)phenyl)urea] was tested. Which IC50 did it give?
Its IC50 is < 50 nM.

For `O=C(Nc1ccc(Oc2ccnc3cc(-c4ccc(C(=O)N5CCN(CCOCCO)CC5)cn4)sc23)c(F)c1)NC1CC1` [Compound 396], which IC50 is on record?
Its IC50 is < 50 nM.

For `CCOC(=O)CN1CCN(Cc2ccc(-c3cc4nccc(Oc5ccc(NC(=O)NC6CC6)cc5F)c4s3)nc2)CC1` [Compound 60, ethyl 2-(4-((6-(7-(4-(3-cyclopropylureido)-2-fluorophenoxy)-thieno[3,2-b]pyridin-2-yl)pyridin-3-yl)methyl)piperazin-1-yl)acetate], which IC50 is on record?
The IC50 was < 50 nM.

Which IC50 does the source give for `CN(C)CCNC(=O)[C@@H]1CCCN1Cc1ccc(-c2cc3nccc(Oc4ccc(NC(=O)NC5CC5)cc4F)c3s2)nc1` [Compound 487, (S)-1-((6-(7-(4-(3-cyclopropylureido)-2-fluorophenoxy)thieno[3,2-6]pyridin-2-yl)pyridin-3-yl)methyl)-N-(2-(dimethylamino)ethyl) pyrrolidine-2-carboxamide] here?
The IC50 was < 50 nM.

`O=C(Nc1ccc(Oc2ccnc3cc(-c4ccc(CN5CCN(Cc6ccccn6)CC5)cn4)sc23)c(F)c1)NC1CC1` [Compound 326, 1-cyclopropyl-3-(3-fluoro-4-(2-(5-((4-(pyridin-2-ylmethyl)piperazin-1-yl)methyl)pyridin-2-yl)thieno[3,2-b]pyridin-7-yloxy)phenyl)urea] was tested. Which IC50 did it give?
Its IC50 is < 50 nM.

With `COCCNCc1ccc(-c2cc3nccc(Oc4ccc(NC(CC(=O)Nc5ccc(F)cc5)C(F)(F)F)cc4F)c3s2)nc1` (centres unmarked) [Compound 20, 4,4,4-trifluoro-3-(3-fluoro-4-(2-(5-((2-methoxyethylamino)methy)pyridin-2-yl)thieno[3,2-b]pyridin-7-yloxy)phenylamino)-N-(4-fluorophenyl)butanamide] as the compound, how does the IC50 read?
Its IC50 is < 50 nM.

For `CN(C(=O)OC(C)(C)C)C1CCN(C(=O)c2ccc(-c3cc4nccc(Oc5ccc(NC(=O)NC6CC6)cc5F)c4s3)nc2)CC1` [Compound 397], which IC50 is on record?
The IC50 was < 50 nM.

`CN1CCN(CCNC(=O)c2ccc(-c3cc4nccc(Oc5ccc(NC(=O)NC6CC6)cc5F)c4s3)nc2)CC1` [Compound 233, 6-(7-(4-(3-cyclopropylureido)-2-fluorophenoxy)thieno[3,2-b]pyridin-2-yl)-N-(2-(4-methylpiperazin-1-yl)ethyl)nicotinamide formate salt] was tested. Which IC50 did it give?
The IC50 was < 50 nM.

`CCNC(=O)N(CCOC)Cc1ccc(-c2cc3nccc(Oc4ccc(NC(=O)NC5CC5)nc4)c3s2)nc1` [Compound 37, N-[3((6-(7-(6-(3-cyclopropylureido)-pyridin-3-yloxy)thieno[3,2-b]-pyridin-2-yl)pyridin-3-yl)methyl)]-N-(1-ethyl)-N-[3-(2-methoxyethyl)]urea] was tested. Which IC50 did it give?
The IC50 was 100 to 250 nM.

`COC(=O)[C@@H]1CCCN1C(=O)c1cc2nccc(Oc3ccc(NC(=O)NC4CC4)cc3F)c2s1` [Compound 449] was tested. Which IC50 did it give?
Its IC50 is < 50 nM.

For `CC(C)(CN1CCN(Cc2ccc(-c3cc4nccc(Oc5ccc(NC(=O)NC6CC6)cc5F)c4s3)nc2)CC1)C(=O)O` [Compound 575], which IC50 is on record?
Its IC50 is < 50 nM.

With `CC(C)(O)CN1CCN(Cc2ccc(-c3cc4nccc(Oc5ccc(NC(=O)NC6CC6)cc5F)c4s3)nc2)CC1` [Compound 570] as the compound, how does the IC50 read?
Its IC50 is < 50 nM.

For `O=C(O)CC(=O)N1CCN(Cc2ccc(-c3cc4nccc(Oc5ccc(NC(=O)NC6CC6)cc5F)c4s3)nc2)CC1` [Compound 510, 3-(4-((6-(7-(4-(3-cyclopropylureido)-2-fluorophenoxy)thieno[3,2-b]pyridin-2-yl)pyridin-3-yl)methyl)piperazin-1-yl)-3-oxopropanoic acid], which IC50 is on record?
The IC50 was < 50 nM.
